Source: patent EP1359152B1, “Diazabicyclic derivatives as nicotinic acetylcholine receptor ligands” (ABBOTT LABORATORIES, priority 1999, dated 2000)
Structures can show the parent of a compound that is named as a salt. Where two headings read alike, the source gives them in different places.

Tests used:
mice = assay: Mouse hot plate paradigm (analgesic effect, latency until tenth jump); type: in vivo; conditions: ip, 0.5 h, minimally effective dose among doses tested, intraperitoneal, dosed 30 minutes prior to testing, hot plate 55 °C, cut-off 180 seconds, increase in tenth jump latency relative to control, read-out: (MED)
Procedure: An in vivo protocol was utilized to determine the effectiveness of nicotinic acetylcholine receptor ligands as analgesic agents in the mouse hot plate paradigm.
Separate groups of mice, (n=8/group) were utilized for each dose group. All drugs were administered by the intraperitoneal route of administration. Test drugs were dissolved in water to make a 6.2 mM stock solution. Animals were dosed with this solution (10 mL/kg body weight) for a 62 micromol/kg dose. Lower doses were administered similarly, following serial dilution of the stock solution in half-log increments. Animals were dosed 30 minutes prior to testing in the hot plate. The hotplate utilized was an automated analgesia monitor (Model #AHP16AN, Omnitech Electronics, Inc. of Columbus, Ohio). The temperature of the hot plate was maintained at 55 °C and a cut-off time of 180 seconds was utilized. Latency until the tenth jump was recorded as the dependent measure. An increase in the tenth jump latency relative to the control was considered an effect.

[1] = molecular target: T1, neuronal nicotinic acetylcholine receptors (Rattus norvegicus, UniProt P09483+P12390); assay: [3H]-cytisine binding to neuronal nicotinic acetylcholine receptors, crude synaptic membranes from whole rat brain
T1 construct: crude synaptic membrane preparations from whole rat brain; from tissue; host or cells: whole rat brain, crude synaptic membranes
Procedure: The In Vitro protocols for determination of nicotinic acetylcholine channel receptor binding potencies of ligands were determined as follows.
Washed membranes were stored at-80 °C prior to use. Frozen aliquots were slowly thawed and resuspended in 20 volumes of buffer (containing: 120 mM NaCl, 5 mM KCI, 2 mM MgCl2, 2 mM CaCl2 and 50 mM Tris-Cl, pH 7.4 @4 °C). After centrifuging at 20,000x g for 15 minutes, the pellets were resuspended in 30 volumes of buffer.
The test compounds were dissolved in water to make 10 mM stock solutions. Each solution was then diluted (1:100) with buffer (as above) and further taken through seven serial log dilutions to produce test solutions from 10^-5 to 10^-11 M.
Samples were incubated for 60 minutes at 4 °C, then rapidly filtered through Whatman GF/B filters presoaked in 0.5% polyethyleneimine using 3 x 4 mL of ice-cold buffer. The filters are counted in 4 mL of Ecolume® (ICN). Nonspecific binding was determined in the presence of 10 µM (-)-nicotine and values were expressed as a percentage of total binding. IC50 values were determined with the RS-1 (BBN) nonlinear least squares curve-fitting program and IC50 values were converted to Ki values using the Cheng and Prusoff correction (Ki=IC50/(1+[ligand]/Kd of ligand).

[2] = [3H]-CYT 1.25 nM, 60 minutes at 4 °C, whole rat brain membranes, Ki from IC50 by Cheng and Prusoff correction, read-out: Average Ki

T1 sequence (P09483 31-630): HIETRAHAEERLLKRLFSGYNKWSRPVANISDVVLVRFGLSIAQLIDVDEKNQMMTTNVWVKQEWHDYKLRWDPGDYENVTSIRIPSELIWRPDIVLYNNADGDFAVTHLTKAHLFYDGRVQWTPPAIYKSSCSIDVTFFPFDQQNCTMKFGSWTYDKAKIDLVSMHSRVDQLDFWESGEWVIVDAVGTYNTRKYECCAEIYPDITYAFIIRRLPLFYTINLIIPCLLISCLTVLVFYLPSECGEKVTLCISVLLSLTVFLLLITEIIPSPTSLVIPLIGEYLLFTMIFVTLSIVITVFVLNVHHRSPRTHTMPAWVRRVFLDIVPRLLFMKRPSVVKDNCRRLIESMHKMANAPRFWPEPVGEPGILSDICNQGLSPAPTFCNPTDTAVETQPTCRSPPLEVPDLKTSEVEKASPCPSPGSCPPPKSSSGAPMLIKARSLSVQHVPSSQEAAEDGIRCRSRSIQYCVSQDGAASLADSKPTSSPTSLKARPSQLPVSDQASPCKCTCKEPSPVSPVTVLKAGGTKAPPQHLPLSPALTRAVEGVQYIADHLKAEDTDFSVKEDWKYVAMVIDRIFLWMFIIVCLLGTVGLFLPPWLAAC
T1 sequence (P12390 25-500): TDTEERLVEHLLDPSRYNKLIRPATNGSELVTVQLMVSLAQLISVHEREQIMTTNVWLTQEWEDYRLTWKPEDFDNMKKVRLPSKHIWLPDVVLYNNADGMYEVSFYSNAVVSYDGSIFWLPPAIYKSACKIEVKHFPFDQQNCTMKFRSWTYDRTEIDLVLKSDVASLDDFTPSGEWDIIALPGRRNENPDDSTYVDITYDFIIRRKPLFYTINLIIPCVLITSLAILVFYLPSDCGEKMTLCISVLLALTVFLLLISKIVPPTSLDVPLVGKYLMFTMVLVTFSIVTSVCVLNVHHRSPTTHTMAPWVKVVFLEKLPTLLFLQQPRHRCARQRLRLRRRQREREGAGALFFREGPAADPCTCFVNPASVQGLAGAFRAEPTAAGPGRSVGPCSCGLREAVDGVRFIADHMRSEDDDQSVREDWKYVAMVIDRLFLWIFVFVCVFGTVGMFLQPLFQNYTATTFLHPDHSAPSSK

For `c1cncc(N2CCC3CCC(C2)N3)c1` (centres unmarked) [Example 41, 3-(3-pyridinyl)-3,9-diazabicyclo[4.2,1]nonane bis(4-methylbenzenesulfonate)], the minimal effective dose (mice) was 6.2 µmol/kg and the Ki [1] was 0.03 nM.
With `c1cnnc(N2C[C@H]3C[C@@H]2CN3)c1` [Example 25, (1R,4R)-2-(3-pyridazinyl)-2,5-diazabicyclo[2,2,1]heptane 4-methylbenzenesulfonate] the minimal effective dose (mice) was 19 µmol/kg and the Ki [1] was 0.4 nM.
Compound `CN1C[C@@H]2C[C@H]1CN2c1nnc(Cl)c2ccccc12` [Example 8, (1S,4S)-2-(4-chloro-1-phthalazinyl)-5-methyl-2,5-diazabicyclo[2.2.1]heptane bis(4-methylbenzenesulfonate)] has a Ki [1] of 2600 nM.
With `Oc1cc(N2C[C@@H]3C[C@H]2CN3)cnc1Cl` [Example 45, (1S,4S)-2-(6-chloro-5-hydroxy-3-pyridinyl)-2,5-diazabicyclo[2.2.1]heptane 4-methylbenzenesulfonate] the Ki [1] was 1.6 nM.
Work on `N#Cc1cncc(N2C[C@@H]3C[C@H]2CN3)c1` [Example 32, (1S,4S)-2-(5-cyano-3-pyridinyl)-2,5-diazabicyclo[2.2.1]heptane 4-methylbenzenesulfonate] yielded a Ki [1] of 1.6 nM.
`Clc1ccc(N2C[C@@H]3C[C@H]2CN3)nc1` [Example 18, (1S,4S)-2-(5-chloro-2-pyridinyl)-2,5-diazabicyclo[2.2.1]heptane dihydrochloride, reference compound] was tested, and the Ki [1] was 400 nM.
Work on `NC(=O)c1cncc(N2C[C@@H]3C[C@H]2CN3)c1` [Example 38, (1S,4S)-2-(5-aminocarbonyl-3-pyridinyl)-2,5-diazabicyclo[2.2.1]heptane bis(4-methylbenzenesulfonate)] yielded a minimal effective dose (mice) of 19 µmol/kg and a Ki [1] of 24 nM.
`Clc1ccc(N2CC3CCC(C2)N3)cn1` [Example 12, 3-(6-chloro-3-pyridinyl)-3,8-diazabicyclo[3.2.1]octane dihydrochloride] was tested, and the Ki [1] was 93 nM.
With `Cc1cc(N2C[C@@H]3C[C@H]2CN3)sn1` [Example 54, (1S,4S)-2-(3-methyl-5-isothiazolyl)-2.5-diazabicyclo[2.2.1]heptane acetate] the Ki [1] was 5 nM.
For `c1cnc2cc(N3C[C@H]4C[C@@H]3CN4)sc2c1` [Example 55, (1R,4R)-2-(thieno[3,2-b]pyridin-2-yl)-2,5-diazabicyclo[2.2.1]heptane acetate], the Ki [1] was 0.84 nM.
In the case of `Clc1ccc(N2CC3CC2CCN3)cn1` (centres unmarked) [Example 49, 6-(6-chloro-3-pyridinyl)-2,6-diazabicyclo[3.2.1]octane bis(4-methylbenzenesulfonate)], the Ki [1] is reported as 2.7 nM.
Work on `Cc1ccc(N2C[C@@H]3C[C@H]2CN3)cn1` [Example 23, (1S,4S)-2-(6-methyl-3-pyridinyl)-2,5-diazabicyclo[2.2.1]heptane 4-methylbenzenesulfonate] yielded a minimal effective dose (mice) of 62 µmol/kg and a Ki [1] of 1.6 nM.
`Oc1cncc(N2C[C@@H]3C[C@H]2CN3)c1` [Example 22, (1S,4S)-2[5-hydroxy-3-pyridinyl]-2,5-diazabicyclo[2.2.1]heptane 4-methylbenzenesulfonate] showed a minimal effective dose (mice) of 19 µmol/kg and a Ki [1] of 4.1 nM.
`c1cncc(N2CC3CNCC2C3)c1` (centres unmarked) [Example 59, 6-(3-pyridinyl)-3,6-diazabicyclo[3.2.1]octane] showed a Ki [1] of 2.2 nM.
`N#Cc1cncc(N2C[C@H]3C[C@@H]2CN3)c1` [Example 44, (1R,4R)-2-(5-cyano-3-pyridinyl)-2,5-diazabicyclo[2,2,1]heptane 4-methylbenzenesulfonate] was tested, and the minimal effective dose (mice) was 0.62 µmol/kg and the Ki [1] was 0.03 nM.
For `Fc1ccc(N2C[C@@H]3C[C@H]2CN3)cn1` [Example 30, (1S,4S)-2-(6-fluoro-3-pyridinyl)-2,5-diazabicyclo[2.2.1]heptane bis(4-methylbenzenesulfonate)], the minimal effective dose (mice) was 1.9 µmol/kg and the Ki [1] was 0.17 nM.
Compound `c1cnnc(N2CC3CCC(C2)N3)c1` [Example 14, 3-(3-pyridazinyl)-3,8-diazabicyclo[3.2.1]octane dihydrochloride] has a Ki [1] of 11 nM.
Compound `O=[N+]([O-])c1ccc(N2CC3CC2CN3)cn1` [Example 28, (1S,4S)-2-(6-nitro-3-pyridinyl)-2.5-diazabicyclo[2.2.1]heptane] has a Ki [1, 2] of 109 nM.
`c1cnnc(N2C[C@@H]3C[C@H]2CN3)c1` [Example 29, (1S,4S)-2-(3-pyridazinyl)-2,5-diazabicyclo[2.2.1]heptane 4-methylbenzenesulfonate] was tested, and the Ki [1] was 37 nM.
Compound `NCc1cncc(N2C[C@@H]3C[C@H]2CN3)c1` [Example 34, (1S,4S)-2-(5-aminomethyl-3-pyridinyl)-2,5-diazabicyclo[2.2.1]heptane trihydrochloride] has a Ki [1] of 140 nM.
With `COc1cc(N2C[C@H]3C[C@@H]2CN3)cnc1Cl` [Example 51, (1R,4R)-2-(6-chloro-5-methoxy-3-pyridinyl)-2,5-diazabicyclo[2.2.1]heptane 4-methylbenzenesulfonate] the Ki [1] was 0.1 nM.
`COC(=O)c1cc(N2C[C@@H]3C[C@H]2CN3)nnc1Cl` [Example 9, (1S,4S)-2-(6-chloro-5-methoxycarbonyl-3-pyridazinyl)-2,5-diazabicyclo[2.2.1]heptane bis(4-methylbenzenesulfonate)] was tested, and the Ki [1] was greater than 10000 nM.
`c1cncc(N2C[C@@H]3C[C@H]2CN3)c1` [Example 17, (1S,4S)-2-(3-pyridinyl)-2,5-diazabicyclo[2.2.1]heptane 4-methylbenzenesulfonate] gave a Ki [1] of 0.063 nM.
With `Clc1ccc(N2C3CCNCC2CC3)cn1` (centres unmarked) [Example 56, 9-(6-chloro-3-pyridinyl)-3,9-diazabicyclo[4.2.1]nonane fumarate] the Ki [1] was 0.21 nM.
Work on `c1ccc(COc2cncc(N3C[C@@H]4C[C@H]3CN4)c2)cc1` [Example 21, (1S,4S)-2-[5-(benzyloxy)-3-pyridinyl]-2,5-diazabicyclo[2.2.1]heptane 4-methylbenzenesulfonate] yielded a Ki [1] of 0.33 nM.
With `c1ccc2ncc(N3C[C@@H]4C[C@H]3CN4)cc2c1` [Example 53, (1S,4S)-2-(3-quinolinyl)-2,5-diazabicyclo[2.2.1]heptane acetate] the Ki [1] was 17 nM.
Work on `Cc1cc(N2C[C@@H]3C[C@H]2CN3C)nnc1Cl` [Example 6, (1S,4S)-2-(6-chloro-5-methyl-3-pyridazinyl)-5-methyl-2,5-diazabicyclo[2.2.1]heptane bis(4-methylbenzenesulfonate)] yielded a Ki [1] of 22 nM.
Compound `O=[N+]([O-])c1ccc(N2CC3CCC(C2)N3)cn1` [Example 10, 3-(6-nitro-3-pyrdinyl)-3,8-diazabicyclo[3.2.1]octane dihydrochloride] has a Ki [1] of 37 nM.
Work on `Clc1ccc(N2C[C@H]3C[C@@H]2CN3)nn1` [Example 16, (1R,4R)-2-(6-chloro-3-pyridazinyl)-2,5-diazabicyclo[2.2.1]heptane bis(4-methylbenzenesulfonate)] yielded a minimal effective dose (mice) of 6.2 µmol/kg.
For `c1ncc(N2C[C@@H]3C[C@H]2CN3)cn1` [Example 52, (1S,4S)-2-(5-pyrimidinyl)-2,5-diazabicyclo[2.2.1]heptane 4-methylbenzenesulfonate], the Ki [1] was 1 nM.
`Nc1ccc(N2CC3CCC(C2)N3)cn1` [Example 11, 3-(6-amino-3-pyridinyl)-3,8-diazabicyclo[3.2.1]octane trihydrochloride] gave a Ki [1] of 37 nM.
In the case of `COc1cncc(N2C[C@@H]3C[C@H]2CN3)c1` [Example 43, (1S,4S)-2-(5-methoxy-3-pyridinyl)-2,5-diazabicyclo[2.2.1]heptane bis(4-methylbenzenesulfonate)], the Ki [1] is reported as 0.57 nM.
With `Clc1nnc(N2C[C@@H]3C[C@H]2CN3)c2ccccc12` [Example 7, (1S,4S)-2-(4-chloro-1-phthalazinyl)-2,5-diazabicyclo[2.2.1]heptane bis(4-methylbenzenesulfonate)] the Ki [1] was 1900 nM.
Compound `c1cncc(N2CC3CCC2CN3)c1` (centres unmarked) [Example 42, 2-(3-pyridinyl)-2.5-diazabicyclo[2.2.2]octane dihydrochloride] has a Ki [1, 2] of 0.02 nM.
`c1cncc(N2CC3CCC(C2)N3)c1` [Example 13, 3-(3-pyridinyl)-3,8-diazabicyclo[3.2.1]octane dihydrochloride] gave a Ki [1] of 0.41 nM.
With `Nc1ccc(N2C[C@@H]3C[C@H]2CN3)cn1` [Example 3, (1S,4S)-2-(6-amino-3-pyridinyl)-2,5-diazabicyclo[2.2.1]heptane trihydrochloride] the Ki [1] was 20 nM.
In the case of `NC(=O)c1cncc(N2CC3CC2CN3)c1` [Example 50, (1R,4R)-2-(5-aminocarbonyl-3-pyridinyl)-2.5-diazabicvclo[2.2.1]heptane bis(4-methylbenzenesulfonate)], the Ki [1, 2] is reported as 0.83 nM.
